We go through 1 compound from US20250205373A1, “ENRICHED AND STABLE RADIOLIGAND THERAPY FORMULATIONS AND PHARMACEUTICAL COMPOSITIONS COMPRISING SAME” (Mariana Oncology Inc., priority 2023, published 2025).

The target of the assay is T1, B7-H3 (41 g) (Homo sapiens, UniProt Q5ZPR3).
T1 sequence (Q5ZPR3 29-534): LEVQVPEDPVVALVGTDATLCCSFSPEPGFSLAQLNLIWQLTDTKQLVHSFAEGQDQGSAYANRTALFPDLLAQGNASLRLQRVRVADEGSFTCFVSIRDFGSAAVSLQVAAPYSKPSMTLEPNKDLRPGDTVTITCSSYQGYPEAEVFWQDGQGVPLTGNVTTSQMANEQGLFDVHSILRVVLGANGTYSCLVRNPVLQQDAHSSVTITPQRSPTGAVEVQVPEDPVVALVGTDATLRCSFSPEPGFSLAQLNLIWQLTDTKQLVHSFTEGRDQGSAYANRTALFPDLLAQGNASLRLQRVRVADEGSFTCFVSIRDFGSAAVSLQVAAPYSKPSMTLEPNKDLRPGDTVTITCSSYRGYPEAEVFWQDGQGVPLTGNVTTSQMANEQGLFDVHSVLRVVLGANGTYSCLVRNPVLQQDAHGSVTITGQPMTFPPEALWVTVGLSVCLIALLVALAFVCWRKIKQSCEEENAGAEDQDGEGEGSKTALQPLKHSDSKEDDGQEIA
Description: Binding of Compound 496 to B7-H3.

Numbered stars: 1 amine (or outer) side, 2 acyl side, 3 side chain; on linkers, the order of the positions; unused ones are H or OH. Bridge positions count the residues as written; N and C are the ends. Square brackets hold non-standard residues; d marks the D form. Side chains are listed from the residue outwards. Peptide text beside a SMILES is read from it. * marks the point of attachment. Ala(1-CH2CO2H-4-piperidyl) = N[C@@H](CC1CCN(CC(=O)O)CC1)C(=O)O; Ala(piperidin-4-yl) = O=C([C@H](CC1CCN([*:3])CC1)N[*:1])[*:2]; X1 = CC(C)[C@H](N[*:1])C(=O)C[C@@H](Cc1ccc(O)cc1)C(=O)[*:2]; DOTA = O=C(O)CN1CCN(CC(=O)O)CCN(CC(=O)*)CCN(CC(=O)O)CC1; Trp(5-F) = N[C@@H](Cc1c[nH]c2ccc(F)cc12)C(=O)O; X2 = C[C@@H](c1ccccc1)[C@H](N[*:1])C(=O)[*:2]; Val(3-OH) = CC(C)(O)[C@H](N)C(=O)O; PEG4 = NCCOCCOCCOCCOCCC(=O)O; Tle = CC(C)(C)[C@H](N)C(=O)O; hLeu = CC(C)CC[C@H](N)C(=O)O

As to `CC(=O)N[C@@H](CCC(C)C)C(=O)N[C@@H](Cc1ccc(O)cc1)C(=O)N[C@H]1CSSC[C@@H](C(=O)N[C@@H](Cc2c[nH]c3ccc(F)cc23)C(=O)N[C@H](C(=O)N[C@H](C(=O)N[C@H](CCC(=O)O)C(N)=O)C(C)(C)O)[C@@H](C)c2ccccc2)NC(=O)[C@H](Cc2ccc(O)cc2)CC(=O)[C@H](C(C)C)NC(=O)[C@H](CC(=O)O)NC(=O)[C@H](CC2CCN(C(=O)CCOCCOCCOCCOCCNC(=O)CN3CCN(CC(=O)O)CCN(CC(=O)O)CCN(CC(=O)O)CC3)CC2)NC(=O)[C@H](CC2CCN(CC(=O)O)CC2)NC(=O)CNC(=O)[C@H](C(C)(C)C)NC1=O` [Compound 496] (Ac-[hLeu]YC[Tle]G[Ala(1-CH2CO2H-4-piperidyl)][Ala(piperidin-4-yl)]([PEG4-DOTA])D[X1]C[Trp(5-F)][X2][Val(3-OH)][dE]-NH2; disulfide 3-10), the “selectivity over the 21 g isoform” value (B7-H3 (41 g) vs 21 g isoform) is listed as “selectivity over the 21 g isoform”. Besides, the binding affinity entry (B7-H3 (41 g), the predominant form expressed by tumor cells) is on record as “high affinity”.
